test: GHS categories as the set defines them, by LD50: 1 up to 5, 2 up to 50, 3 up to 300, 4 up to 2000, 5 above 2000 mg/kg; conditions: rat; in vivo; po
Description: […]The data set underlying the modeling effort for this project was initially compiled by NICEATM and U.S. EPA’s CCTE. Briefly, LD50 data were collected from rat acute oral systemic toxicity tests, including limit tests, ranges/confidence intervals, and discrete LD50 values. The full data set included 21,200 LD50 entries for 15,688 substances. […] Data were reviewed to ensure that LD50 values with obvious errors in the extracted data such as unit conversion errors (e.g., comma and decimal separator misplacements) were either fixed or removed. After this review, 16,209 LD50 values remained. Many of the chemicals represented had multiple LD50 entries, requiring that a single representative value per Chemical Abstracts Service Registry Number (CASRN) identifier be defined to facilitate modeling efforts. Based on ATWG feedback and to define the representative LD50 as a protective value while accounting for the distribution across multiple LD50s, the median of the lowest quartile was computed using only discrete LD50 values (omitting limit test data and range and confidence interval data). A detailed summary of the data compilation is available online on the NICEATM webpage dedicated to the collaborative modeling project (NTP 2020).
[…][…] For categorical designations, limit test and range/confidence interval LD50 data were integrated wherever possible. As such, the number of chemicals with end point values/calls varies across the modeling end points (Table 3) based on whether chemicals had representative LD50 values and/or other data. If a chemical had both, the representative value was used to determine categorical calls rather than limit test data. Some data were useable only for certain end points and categories depending on the thresholds. For example, ranges that spanned multiple hazard categories were considered only for the binary (very toxic/nontoxic) end points and omitted from rendering a determination for hazard category assignment.
[…]The final data set comprising 11,992 chemicals was split into training and evaluation sets […], respectively. This process was performed semirandomly by ordering chemicals based on the five end points (categorical and continuous LD50 values) and partitioning every fourth record into the evaluation set accordingly. This approach was taken to ensure an equivalent distribution of the LD50 values and the different hazard categories between the training and the evaluation sets without supervised sampling of the chemicals based on structures (Figure 1A). The sources of the chemical structures were also kept equivalent between the two sets, with chemical structures obtained from DSSTox, being the highest quality, representing over 75% of each set (Figure 1B).

SMILES | GHS category
C[C@@H]1CN2CC(=O)Nc3ccc(Cl)cc3[C@]2(c2ccccc2)O1 | 5
Oc1ccc(C(O)CNCCCCCCNCC(O)c2ccc(O)c(O)c2)cc1O (stereo not drawn) | 5
CNC(=O)Oc1ccc(C)c2sccc12 | 3
C=CC(C)(O)CCCC(C)CCCC(C)CCCC(C)C (stereo not drawn) | 5
COP(=S)(OC)Oc1ccc(/N=N/c2ccc(Cl)cc2)cc1 | 4
CCCCCCOC(=O)C(C)CC (stereo not drawn) | 5
CCCc1c(Cc2ccc(-c3ccccc3-c3nn[nH]n3)cc2)c(=O)nc2nc(N(CC)CC)[nH]n12 | 4
CC(C)=CCCC(C)(C)O | 5
C=CC(=C)CC/C=C(\C)CCC=C(C)C | 5
NS(=O)(=O)c1cc2c(cc1Cl)NC(Cc1ccccc1)NS2(=O)=O (stereo not drawn) | 5
CCCCOC(=O)Nc1nc(N2CC=CCC2)cc2nc(=O)on12 | 5
CC(C)c1cc(C(C)C)c(N=C=O)c(C(C)C)c1N=C=O | 5
CC(=O)CCC=C(C)CCC=C(C)C | 5
O=C1C=CC(=NNc2ccc(N=Nc3ccc(-c4ccc(NN=C5C=CC(=O)C(C(=O)O)=C5)cc4)cc3)c3ccc(S(=O)(=O)O)cc23)C=C1 | 5
O=C1OCCC1O (stereo not drawn) | 5
O=C(O)c1ccccc1Nc1ccc(O)c(C(F)(F)F)c1 | 5
CC(C)c1nc2ccccc2c(=O)n1-c1ccncc1 | 4
CCCCC(=O)O[C@]1(C(=O)COC(C)=O)CC[C@H]2[C@@H]3CCC4=CC(=O)C=C[C@]4(C)[C@H]3[C@@H](O)C[C@@]21C | 5
CC(C)CCCCCCCCCCO | 5
Cc1c(Cl)c(=O)oc2cc(OP(=O)(OCCCCCl)OCCCCCl)ccc12 | 3
O=c1nc2nc[nH]n2c(CO)c1Cc1ccc(-c2ccccc2-c2nn[nH]n2)cc1 | 4
C1=CCC(c2ccccc2)CC1 (stereo not drawn) | 5
CCCCc1nc(C=O)c(Cl)[nH]1 | 5
N[C@@H](CC(=O)O)C(=O)O | 5
OCC(O)C1OC(c2ccco2)OC(CO)C1O (stereo not drawn) | 5
CCCCCCCCCC(OC)OC | 5

SMILES | GHS category
CCN(CC)C(C)C(=O)c1ccccc1 (stereo not drawn) | 4
ClCCCCc1nnnn1C1CCCCC1 | 5
CCOC(=O)[C@H](CCc1ccccc1)N[C@@H](C)C(=O)N1CC2(C[C@H]1C(=O)O)SCCS2 | 5
CCCCCCC(=O)OCC | 5
CCOC(=O)Oc1ccc(C2(c3ccc(OC(=O)OCC)cc3)C(=O)Nc3c(C)cccc32)cc1 | 5
Nc1nc(=O)c2c([nH]1)NCC(CNc1ccc(C(=O)N[C@@H](CCC(=O)O)C(=O)O)cc1)N2C=O (stereo partly drawn) | 5
CCC1COC(Cn2cncn2)(c2cc3cc(Cl)ccc3o2)O1 (stereo not drawn) | 4
C=CC(=O)OCC[N+](C)(C)Cc1ccccc1 | 5
Cc1nnc(SCC2=C(C(=O)O)N3C(=O)[C@@H](NC(=O)Cn4cnnn4)[C@H]3SC2)s1 | 5
Cc1ccc2c(-c3ccc(F)cc3)nc(=O)n(C(C)C)c2c1 | 5
CCCCCCCCCCCCSN(C)C(=O)Oc1cccc2c1OC(C)(C)C2 | 3
OCC1C(CO)C2(Cl)C(Cl)=C(Cl)C1(Cl)C2(Cl)Cl (stereo not drawn) | 5
Nc1nnc(-c2cc(Cl)ccc2Cl)c(N)n1 | 4
OCC(O)COc1nn(Cc2ccccc2)c2ccccc12 (stereo not drawn) | 5
O=C(c1ccc(Cl)c(Cl)c1)c1ccccc1-c1ncc[nH]1 | 4
COc1ccc(C2COc3ccccc3O2)cc1O (stereo not drawn) | 5
NC(=O)Oc1ccccc1C(=O)Oc1ccccc1[N+](=O)[O-] | 5
O=S(=O)(O)CCN1CCN(CCO)CC1 | 5
CC1CCC(C(C)C)C(OC(=O)C2OC(O)CS2)C1 (stereo not drawn) | 5
COc1ccc(Cl)cc1NC(=O)CC(C)=O | 5
C[C@]12C=CC(=O)C=C1CC[C@@H]1[C@@H]2CC[C@@]2(C)[C@H]1CC[C@]2(C)O | 4
CC(SC(=O)c1cccs1)C(=O)NC1CCSC1=O (stereo not drawn) | 5
Clc1cc(Cl)c(OCC#CI)cc1Cl | 5
C[C@H]1[C@H](NC(=O)C(=NOC(C)(C)C(=O)O)c2csc(N)n2)C(=O)N1S(=O)(=O)O | 5
CCCN[C@H]1CCc2nc(N)sc2C1 | 4
N#CCCn1ccnc1 | 4

SMILES | GHS category
Cn1c(=O)oc2cc(C(=O)c3ccc(Cl)cc3)ccc21 | 5
CC1(C)S[C@@H]2[C@H](/N=C/N3CCCCCC3)C(=O)N2[C@H]1C(=O)O | 5
COc1ccc(N(CCCC(=O)O)C(=O)c2ccc(Cl)cc2)c(OC)c1 | 4
C=CC1=C(C(=O)O)N2C(=O)[C@@H](NC(=O)C(=NOCC(=O)O)c3csc(N)n3)[C@H]2SC1 | 5
CC=CC(=O)OCCCCCC | 5
CC/C=C\CCOC(=O)C/C=C\CC | 5
CC(C)CCCCCC(=O)NCCCCCC(=O)O | 5
CCN(CC)CCC1=NC(=C2C=CC(=O)C=C2)NO1 | 5
CCC(CC)CC1(C(=O)O)CCCCC1 | 4
Nc1nc(=O)c(Br)c(-c2ccccc2)[nH]1 | 5
CC(=O)O[C@]1(C(C)=O)CC[C@H]2[C@@H]3C[C@H](C)C4=CC(=O)CC[C@]4(C)[C@H]3CC[C@@]21C | 5
CS(=O)(=O)c1ccc(C(=O)C2C(=O)CCCC2=O)c(Cl)c1 | 5
CO[C@@]1(NC(=O)CSC(F)F)C(=O)N2C(C(=O)O)=C(CSc3nnnn3CCO)CO[C@@H]21 | 5
O=C1CC(Nc2ccc([N+](=O)[O-])cc2)=NN1c1c(Cl)cc(Cl)cc1Cl | 5
CCC(C)(C)c1ccc(OP(=O)(NC)OC)c(Cl)c1 (stereo not drawn) | 3
CC(C)(C=O)CN1CCOCC1 | 5
CCc1ccc(-n2nnnc2CSCCC(=O)N(CC)CC)cc1 | 4
Cn1nnnc1SCCCS(=O)c1ccccn1 (stereo not drawn) | 4
Cc1cc(C(C)(C)C)c(O)c(C)c1Cn1c(=O)n(Cc2c(C)cc(C(C)(C)C)c(O)c2C)c(=O)n(Cc2c(C)cc(C(C)(C)C)c(O)c2C)c1=O | 5
NC(=O)c1cc[n+](CC2=C(C(=O)O)N3C(=O)[C@@H](NC(=O)[C@H](c4ccccc4)S(=O)(=O)[O-])[C@@H]3SC2)cc1 | 5
CCCc1c(Cc2ccc(-c3oc(Br)cc3-c3nn[nH]n3)cc2)c(=O)nc2nc[nH]n12 | 4
CCN(C(=O)CCCCSc1nnnn1C)C1CCCCC1 | 4
CN1CCN(C2=NS(=O)(=O)c3cc(Cl)ccc3N2)CC1 | 5
C=CCCCCCCCC(=O)OC | 5
CCOC(=O)C(F)F | 5
Clc1ccc(N/C(=N/C2CCCCC2)c2ccccc2)cc1Cl | 5

SMILES | GHS category
O=C(Nc1ccc(Cl)cc1C(O)c1ccccc1)c1ccncc1 (stereo not drawn) | 5
Cc1c(C)c([N+](=O)[O-])c(C(C)(C)C)c([N+](=O)[O-])c1C | 5
N#CC1(N)CC1 | 4
FC(F)(F)C(F)(F)C(F)(F)C(F)(F)N(C(F)(F)C(F)(F)C(F)(F)C(F)(F)F)C(F)(F)C(F)(F)C(F)(F)C(F)(F)F | 5
CNc1ccc(C(=O)c2ccccc2)cc1O | 5
COc1c2ccoc2cc2oc(=O)ccc12 | 5
Cc1cc(C)c(Nc2ccc(Nc3c(C)cc(C)cc3C)c3c2C(=O)c2ccccc2C3=O)c(C)c1 | 5
CC(C)=CCSC[C@H](N)C(=O)O | 5
CC(C)CCCCCCCCCCCCCCC(=O)O | 5
C=CCCCCCCCCC(C)CCCCCCCC (stereo not drawn) | 5
COC(=O)CC(C)C(=O)c1ccc(NC(=O)c2ccc(OC)cc2)c([N+](=O)[O-])c1 (stereo not drawn) | 5
Brc1ccc(CNC2=NCCS2)cc1 | 3
CCCCCCCCCCCCCCCCCCCCCCc1ccccc1 | 5
CCN(CC)CC1CC2(CC(CN(CC)CC)OC2=O)C(=O)O1 (stereo not drawn) | 5
CCOC(=O)c1cn(C2CC2)c2cc(F)c(F)cc2c1=O | 5
CCCCCCCC(=O)O[C@H]1CO[C@H]2[C@@H]1OC[C@H]2OC(=O)CCCCCCC | 5
CCN1C(=O)CCc2c(OCC(O)CN3CCC(Cc4ccccc4)CC3)cccc21 (stereo not drawn) | 4
CCOP(=O)(CN(CCO)CCO)OCC | 5
CCOC(=O)c1ocnc1C | 5
CCCCCCCCCCCCCCCC(=O)O | 5
CC(C)(C)c1ccc(OCC2CO2)cc1 (stereo not drawn) | 5
CC(=O)CCC=C(C)CC/C=C(\C)CC/C=C(\C)CCC=C(C)C | 5
CCC(C)(O)CCCC(C)C (stereo not drawn) | 5
COc1ccc2c(c1)CCN(c1ccccc1)C2c1ccc(F)cc1 (stereo not drawn) | 4
CN(C)CCCNc1nc2cc(Cl)ccc2o1 | 4

Source: the CATMoS acute toxicity set (Mansouri et al. 2021)
